Patent US8013153B2, “Substituted pyrimidine kinase inhibitors” (Janssen Pharmaceutica, N.V., priority 2006, dated 2011)
“And” between values parts separate entries of the source, which are not always exact repeats. Equal entries are not always repeated. “Also recorded” adds a separate entry of the source.

Key:
[1] = system: VEGF-induced angiogenesis; assay: Mouse Corneal Micropocket Assay; type: in vivo, C57BL/6J mice
Source text: This method has been described in detail (see Kenyon B, Voest E E, Chen C C, Flynn E, Folkman J and D'Amato R J, A model of angiogenesis in the mouse cornea, Invest. Opthalmol. Vis. Sci., 1996, 37:1625-1632; and, LaMontagne K, Littlewood-E A, Schnell C, O'Reilly T, Wyder L, Sanchez T, Probst B, Butler J, Wood A, Liau G, Billy E, Theuer A, Hla T and Wood J, Antagonism of sphingosine-1-phosphate receptors by FTY720 inhibits angiogenesis and tumor vascularization, Cancer Res., 2006, 66:221-31) and is an in vivo functional assay that provides an important link between biochemical and cellular inhibition (i.e., VEGFR-2 autophosphorylation and VEGF-dependent migration) and functional biological end points (i.e., VEGF-induced angiogenesis in vivo).
Pellets containing the slow-release polymer Hydron® and sucralfate with 180 ng rHuVEGF165 were implanted into the cornea of female C57BL/6J mice. Daily oral treatment with either Compound 50 (10 mg/kg or 100 mg/kg) or vehicle (0.5% methylcellulose) was started 24 hours later. […] After sacrifice on day 6, the vascular response was quantified using a linear reticule through the slit lamp. Inhibition was determined by the formula: Inhibition=[(0.2)(π)(new blood vessel length)(clock hours of neovessels)]
The circumferential zone was measured as clock hours with a 360° reticule (where 30° of arc equals 1 clock hour). […]

[2] = system: HCT116 human colorectal carcinoma; assay: In vivo inhibition of tumor growth, HCT116 model; design: species or system athymic nude mice; conditions: 10 mg/kg daily, oral
Source text: (§1) Female Nu/Nu˜nuBR athymic nude mice (obtained from Charles River Laboratories), at the age of 5-6 weeks were feed water and an irradiated standard rodent diet ad libitum, and housed in specific pathogen-free conditions, according to the guidelines of the American Association for Accreditation of Lab Animal Care (AALAC).
(§2) Mice were implanted subcutaneously in the right hind flank with the various tumor cell suspensions in HBSS containing 10% FBS: A431 human epidermoid carcinoma (4×10^6 cells/mouse), HCT116 human colorectal carcinoma (4×10^6 cells/mouse) and A375 human skin melanoma (2×10^6 cells/mouse). […]
(§3) The tumors were allowed to establish growth for 10 to 14 days. Tumor size was measured every 3 days. […]
(§4) Tumor measurements and body weights were recorded individually (2×/week) during the treatment period of the experiment. Tumors were measured using a digital caliper. Data was recorded/calculated using Study Director software (StudyLog Systems, Inc.) and graphs were created in GraphPad Prizm.
(§5) The volume of each tumor in an animal was calculated according to the formula: (D×d^2)/2, where the diameters were determined from two orthogonal measurements on each tumor. The mean tumor volume was determined by averaging all tumor volumes in each group. The mean body weight was determined by averaging all body weights in each group. […]

[3] = In vivo tumor xenograft models overall (tolerability, body weight, plasma levels)
Description: as §1, §4
The volume of each tumor in an animal was calculated according to the formula: (D×d^2)/2, where the diameters were determined from two orthogonal measurements on each tumor. The mean tumor volume was determined by averaging all tumor volumes in each group. The mean body weight was determined by averaging all body weights in each group.

[4] = target: T1, CDK1:Cyclin-B (Homo sapiens, UniProt P06493); assay: CDK1 Screening Assay; type: biochemical
T1 construct: purchased New England Biolabs, Beverly, Mass; 6020; host or cells: insect cells
T1 sequence (P06493 whole entry): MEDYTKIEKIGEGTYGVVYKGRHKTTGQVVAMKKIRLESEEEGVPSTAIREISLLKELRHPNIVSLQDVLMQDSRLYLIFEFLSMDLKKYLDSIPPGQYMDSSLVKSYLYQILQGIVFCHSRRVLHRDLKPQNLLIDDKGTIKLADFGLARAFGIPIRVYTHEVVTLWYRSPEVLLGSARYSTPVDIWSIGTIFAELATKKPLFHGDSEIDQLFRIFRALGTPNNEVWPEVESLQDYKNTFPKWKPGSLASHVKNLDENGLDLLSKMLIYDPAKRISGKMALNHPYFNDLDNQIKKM
T1 sequence (P14635 whole entry partner): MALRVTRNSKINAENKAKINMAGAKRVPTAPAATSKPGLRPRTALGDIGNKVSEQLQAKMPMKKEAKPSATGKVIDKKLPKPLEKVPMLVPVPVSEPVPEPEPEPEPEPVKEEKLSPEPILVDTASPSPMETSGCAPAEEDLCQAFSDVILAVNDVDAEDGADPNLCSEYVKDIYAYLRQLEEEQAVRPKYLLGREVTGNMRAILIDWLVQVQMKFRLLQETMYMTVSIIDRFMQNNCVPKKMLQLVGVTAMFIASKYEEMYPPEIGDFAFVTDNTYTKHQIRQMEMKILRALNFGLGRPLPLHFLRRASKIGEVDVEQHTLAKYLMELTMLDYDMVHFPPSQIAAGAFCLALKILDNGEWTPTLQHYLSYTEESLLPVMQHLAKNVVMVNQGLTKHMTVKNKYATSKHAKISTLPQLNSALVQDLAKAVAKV

[5] = system: A431 human epidermoid carcinoma; assay: In vivo inhibition of tumor growth, A431 model; design: species or system athymic nude mice; conditions: 10 mg/kg daily, oral
Source text: as §1, §2, §3, §4, §5

[6] = target: V600E Raf mutant (Homo sapiens, UniProt P15056, V600E); assay: RAF Kinase Screening Assay (V600E Raf mutant); conditions: Compound 50 tested at 30 μM
V600E Raf mutant, sequence (P15056 whole entry V600E): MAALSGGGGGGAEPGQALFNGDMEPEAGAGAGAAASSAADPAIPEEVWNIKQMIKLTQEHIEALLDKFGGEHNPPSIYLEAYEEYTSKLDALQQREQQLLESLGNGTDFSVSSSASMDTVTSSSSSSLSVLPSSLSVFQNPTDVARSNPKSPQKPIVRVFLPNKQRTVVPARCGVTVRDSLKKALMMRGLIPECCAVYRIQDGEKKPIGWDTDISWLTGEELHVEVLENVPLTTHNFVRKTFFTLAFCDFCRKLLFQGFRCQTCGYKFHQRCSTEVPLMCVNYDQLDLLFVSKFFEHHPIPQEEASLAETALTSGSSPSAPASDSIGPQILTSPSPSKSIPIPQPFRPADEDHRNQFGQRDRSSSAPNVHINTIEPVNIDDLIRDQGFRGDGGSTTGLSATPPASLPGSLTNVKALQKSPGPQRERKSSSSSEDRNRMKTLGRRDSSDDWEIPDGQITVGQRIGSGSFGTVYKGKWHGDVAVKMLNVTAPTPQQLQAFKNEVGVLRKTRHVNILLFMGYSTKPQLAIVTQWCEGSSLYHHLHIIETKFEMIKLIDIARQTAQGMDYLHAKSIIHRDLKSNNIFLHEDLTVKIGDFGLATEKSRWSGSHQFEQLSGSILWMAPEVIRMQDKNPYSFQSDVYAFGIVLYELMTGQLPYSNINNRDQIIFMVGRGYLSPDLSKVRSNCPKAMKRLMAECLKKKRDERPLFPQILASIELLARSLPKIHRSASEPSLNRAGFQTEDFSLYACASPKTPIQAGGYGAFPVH

[7] = 100 mg/kg daily, 24-28 days of treatment
[8] = A431 and HCT116 models, continuous administration for 24 days

CCNC(=O)Nc1ccc(Oc2ncnc(N)c2/C=N/OC)cc1Cl [Cpd 50, 1-{4-[6-amino-5-(methoxyimino-methyl)-pyrimidin-4-yloxy]-2-chloro-phenyl}-3-ethyl-urea]
% Inhibition of blood vessel growth compared to the vehicle group ([1]; 10 mg/Kg daily oral): 15% and 15 ± 2%
% Inhibition of blood vessel growth compared to the vehicle group ([1]; 100 mg/Kg daily oral): 83% and 83 ± 6%
inhibition of tumor growth [2]: < 50%
inhibition in tumor xenograft models ([3]; 10 mg/kg qd): 28-48%
plasma levels ([3]; 100 mg/kg daily dosing schedule, oral, mice): 20 µM
body weight [3, 7]: no reduction of body weight
tolerability [3, 7]: well-tolerated
treatment-related deaths [3, 7]: no treatment-related deaths
body weights [3, 8]: comparable with control animals
tolerability [3, 8]: well tolerated
IC50 [4]: > 100 µM
inhibition of tumor growth [5]: < 50%
activity against the V600E Raf mutant [6]: no activity; also recorded: not active
